Test results reported in article PMC11067709 (Clinical and Translational Science, 2024).
Like-named read-outs stand apart in the source and are kept apart here. Values belong to the compound of their own block, whether it stands above or below them.

Experiments:
[1] = Pharmacokinetic interaction study, fexuprazan and celecoxib; assay type: in vivo, healthy Korean male subjects; details: 5 days; for T max,ss / Tmax: median [minimum–maximum]; for Tmax: T max,ss; for Vd/F: V ss/F
[2] = Safety and tolerability, adverse events, Cohort 1; assay type: in vivo, healthy Korean male subjects
[3] = Safety and tolerability, adverse events, Cohort 2; assay type: in vivo, healthy Korean male subjects
[4] = Safety and tolerability, adverse events, Cohort 3; assay type: in vivo, healthy Korean male subjects
[5] = for AUCτ,ss / C max,ss / MR, metabolic ratio of fexuprazan (AUCτ,M14/AUCτ,fexuprazan) / V ss/F / t 1/2 / T max,ss: 5 days; for AUCτ,ss / C max,ss / MR, metabolic ratio of fexuprazan (AUCτ,M14/AUCτ,fexuprazan) / V ss/F / t 1/2: mean ± SD; for T max,ss: median [minimum–maximum]
[6] = for T max: median [minimum–maximum]
[7] = cited from earlier work; for intra‐subject variability for the PK parameter (C max): NSAIDs, ref previously reported
[8] = system: uptake or efflux transporters; details: cited from earlier work
transporters = details: at the effective dose of 40 mg; cited from earlier work
[9] = cited from earlier work
CYP2C9 = details: CYP isoform 2C9; cited from earlier work
clinical = details: male, human, in vivo, po, 15 mg, T max,ss, 7 days, Arm E, median [minimum–maximum]
CYP2D6 = details: CYP isoform 2D6; cited from earlier work
[10] = combination: fexuprazan 40 mg BID + celecoxib 200 mg BID, Arm B, mean ± SD
[11] = monotherapy: fexuprazan 40 mg BID, Arm B (Cohort 1), mean ± SD
[12] = combination: fexuprazan 40 mg BID + naproxen 500 mg BID, Arm D
[13] = monotherapy: fexuprazan 40 mg BID, Arm D (Cohort 2)
[14] = combination: fexuprazan 40 mg BID + meloxicam 15 mg QD, 7 days, Arm F, mean ± SD
[15] = monotherapy: fexuprazan 40 mg BID, 5 days, Arm F (Cohort 3), mean ± SD

AUCτ,ss [1, 10]: 570.2 ± 255.7 ng·h/mL | C max,ss [1, 10]: 71.3 ± 32.4 ng/mL | MR, metabolic ratio of fexuprazan (AUCτ,M14/AUCτ,fexuprazan) [1, 10]: 3.82 ± 2.72 | V ss/F [1, 10]: 1136.7 ± 730.7 L | t 1/2 [1, 10]: 8.5 ± 0.8 h | T max,ss ([1]; combination: fexuprazan 40 mg BID + celecoxib 200 mg BID, Arm B): 2.5 [1.0–6.0] h | AUCτ,ss [1, 11]: 555.3 ± 239.6 ng·h/mL | C max,ss [1, 11]: 65.6 ± 30.1 ng/mL | MR, metabolic ratio of fexuprazan (AUCτ,M14/AUCτ,fexuprazan) [1, 11]: 3.56 ± 2.50 | V ss/F [1, 11]: 1203.2 ± 788.6 L | t 1/2 [1, 11]: 8.7 ± 1.2 h | T max,ss ([1]; monotherapy: fexuprazan 40 mg BID, Arm B (Cohort 1)): 3.0 [1.0–6.0] h | AUCτ,ss [5, 12]: 728.7 ± 463.2 ng·h/mL | C max,ss [5, 12]: 89.2 ± 52.5 ng/mL | MR, metabolic ratio of fexuprazan (AUCτ,M14/AUCτ,fexuprazan) [5, 12]: 2.03 ± 1.25 | V ss/F [5, 12]: 808.9 ± 503.9 L | t 1/2 [5, 12]: 7.8 ± 1.1 h | T max,ss [5, 12]: 3.0 [1.5–4.0] h | increase in systemic exposure ([5]; fexuprazan co-administered with naproxen vs fexuprazan alone): approximately 20% | AUCτ,ss [5, 13]: 591.7 ± 271.7 ng·h/mL | C max,ss [5, 13]: 72.5 ± 37.0 ng/mL | MR, metabolic ratio of fexuprazan (AUCτ,M14/AUCτ,fexuprazan) [5, 13]: 2.65 ± 1.22 | V ss/F [5, 13]: 1028.6 ± 506.2 L | t 1/2 [5, 13]: 8.6 ± 0.9 h | T max,ss [5, 13]: 2.5 [1.0–6.0] h | AUCτ,ss [6, 14]: 674.7 ± 379.2 ng·h/mL | C max,ss [6, 14]: 83.2 ± 46.2 ng/mL | V ss/F [6, 14]: 1427.7 ± 1984.4 L | t 1/2 [6, 14]: 8.6 ± 2.1 h | T max ([6]; combination: fexuprazan 40 mg BID + meloxicam 15 mg QD, 7 days, Arm F): 2.5 [1.5–4.0] h | AUCτ,ss [6, 15]: 728.3 ± 403.5 ng·h/mL | C max,ss [6, 15]: 82.8 ± 45.5 ng/mL | MR, metabolic ratio of fexuprazan (AUCτ,M14/AUCτ,fexuprazan) [6, 15]: 2.50 ± 1.64 | V ss/F [6, 15]: 1161.1 ± 1231.1 L | t 1/2 [6, 15]: 9.6 ± 2.2 h | T max ([6]; monotherapy: fexuprazan 40 mg BID, 5 days, Arm F (Cohort 3)): 2.5 [1.5–8.0] h
SMILES: CNCc1cn(S(=O)(=O)c2cccc(F)c2)c(-c2ccc(F)cc2F)c1OC [Fexuprazan]
percentage of subjects with AEs [2]: 33.3% | Summary of AEs: number of events [3]: six | percentage of subjects with AEs [3]: 33.3% | Summary of AEs: number of events [4]: eight | percentage of subjects with AEs [4]: 23.5% | elimination half‐life ([7]; fexuprazan): 7.5 to 9.5 h | substrate for uptake or efflux transporters [8]: not a substrate | potential for inhibitory effects on transporters (transporters): low potential | multiple dose with established safety and tolerability ([9]; multiple doses for 7 days): up to 160 mg | single dose with established safety and tolerability ([9]; single dose): up to 320 mg

SMILES: COc1ccc2cc([C@H](C)C(=O)O)ccc2c1 [Naproxen]
intra‐subject variability for the PK parameter (C max) [7]: 8.4%

Tmax (clinical; combination: meloxicam 15 mg QD + fexuprazan 40 mg BID): 4.5 h | Tmax (clinical; monotherapy: meloxicam 15 mg QD): 5 h
SMILES: Cc1cnc(NC(=O)C2=C(O)c3ccccc3S(=O)(=O)N2C)s1 [Meloxicam]
inhibitory effect of NSAIDs on the CYP isoform (CYP2C9): relatively weak inhibitor | intra‐subject variability for the PK parameter (C max) [7]: 9.8%

AUC ([1]; male, human, plasma, po, 200 mg, AUCτ,ss, combination: celecoxib 200 mg BID + fexuprazan 40 mg BID, Arm A, mean ± SD): 8110 ± 2550 ng·h/mL | Cmax ([1]; male, human, plasma, po, 200 mg, C max,ss, monotherapy: celecoxib 200 mg BID, Arm A, mean ± SD): 1080 ± 315 ng/mL | Tmax ([1]; male, human, plasma, po, 200 mg, combination: celecoxib 200 mg BID + fexuprazan 40 mg BID, Arm A): 3 h | Tmax ([1]; male, human, plasma, po, 200 mg, monotherapy: celecoxib 200 mg BID, Arm A): 2.5 h | Vd/F ([1]; male, human, plasma, po, 200 mg, combination: celecoxib 200 mg BID + fexuprazan 40 mg BID, Arm A, mean ± SD): 358 ± 126 L | Vd/F ([1]; male, human, plasma, po, 200 mg, monotherapy: celecoxib 200 mg BID, Arm A, mean ± SD): 416 ± 235 L | half-life ([1]; male, human, plasma, po, 200 mg, t 1/2, combination: celecoxib 200 mg BID + fexuprazan 40 mg BID, Arm A, mean ± SD): 9.5 ± 3.3 h | half-life ([1]; male, human, plasma, po, 200 mg, t 1/2, monotherapy: celecoxib 200 mg BID, Arm A, mean ± SD): 9.4 ± 5 h
SMILES: Cc1ccc(-c2cc(C(F)(F)F)nn2-c2ccc(S(N)(=O)=O)cc2)cc1 [Celecoxib]
inhibitory effect of NSAIDs on the CYP isoform (CYP2D6): moderate inhibitory effects | intra‐subject variability for the PK parameter (C max) [7]: 31.8% | elimination half‐life ([7]; celecoxib): 12.4 h
